According to US20170037028A1 (BAYER PHARMA AKTIENGESELLSCHAFT, priority 2013, published 2017):

What follows are molecules tested against T1, GLUT1 (Homo sapiens, UniProt P11166) (assay: Indirect measurement of GLUT1 activity by quantification of intracellular ATP levels (glucose induced ATP increase)). Settings: read-out: IC50 regarding glucose induced ATP increase (GLUT1 inhibition).
T1 sequence (P11166 1-492): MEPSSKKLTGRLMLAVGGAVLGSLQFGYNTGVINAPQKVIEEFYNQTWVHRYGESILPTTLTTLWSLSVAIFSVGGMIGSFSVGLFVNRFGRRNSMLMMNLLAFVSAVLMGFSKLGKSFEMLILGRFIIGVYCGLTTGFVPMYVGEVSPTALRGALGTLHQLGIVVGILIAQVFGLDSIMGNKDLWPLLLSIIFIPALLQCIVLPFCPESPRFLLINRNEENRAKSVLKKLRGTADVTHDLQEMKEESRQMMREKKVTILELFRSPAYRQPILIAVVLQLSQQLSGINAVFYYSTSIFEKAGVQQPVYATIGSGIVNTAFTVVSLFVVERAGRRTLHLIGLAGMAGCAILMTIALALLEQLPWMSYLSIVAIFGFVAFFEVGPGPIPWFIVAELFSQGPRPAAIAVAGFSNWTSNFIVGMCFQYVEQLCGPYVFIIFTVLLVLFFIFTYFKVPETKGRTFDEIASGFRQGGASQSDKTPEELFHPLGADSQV
Type: cell-based
Set-up: endogenous in cells; host or cells: DLD1 or CHO-K1
How it was run: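 Intracellular ATP was measured by CellTiter-Glo luminescence as an indirect readout of transport: glucose-driven for GLUT1, fructose-driven for GLUT2. DLD1 or CHO-K1 cells were used alongside an oxidative phosphorylation inhibitor. Beforehand, cells were held overnight in glucose-free 1% FCS medium to deplete ATP.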

In order of rising IC50:
1. Cc1nn(Cc2ccc(C#N)cc2F)c(C)c1NC(=O)c1cc(C(N)=O)nc2cccc(F)c12 [Example 301, N^4-[1-(4-cyano-2-fluorobenzyl)-3,5-dimethyl-1H-pyrazol-4-yl]-5-fluoroquinoline-2,4-dicarboxamide]  0.5 nM
2. Cc1cc(Cn2nc(C)c(NC(=O)c3cc(C(N)=O)nc4cccc(F)c34)c2C)ccc1C#N [Example 1697]  0.5 nM
3. Cc1c(NC(=O)c2cc(C(N)=O)nc3cccc(F)c23)c(C(F)(F)F)nn1Cc1ccc(CC(F)(F)F)cc1 [Example 1715]  1.5 nM
4. CCCNC(=O)c1ccc(Cn2nc(C)c(NC(=O)c3cc(C(F)(F)F)nc4ccc(Br)cc34)c2C)cc1 [Example 1020]  1.9 nM
5. Cc1nn(Cc2ccc(F)c(F)c2)c(C)c1NC(=O)c1cc(C2CC2)nc2ccc(Br)cc12 [Example 123, 6-bromo-2-cyclopropyl-N-[1-(3,4-difluorobenzyl)-3,5-dimethyl-1H-pyrazol-4-yl]quinoline-4-carboxamide]  2 nM
6. Cc1c(NC(=O)c2cc(C(N)=O)nc3cc(F)ccc23)c(C(F)(F)F)nn1Cc1ccccc1C#N [Example 272, N^4-[1-(2-cyanobenzyl)-5-methyl-3-(trifluoromethyl)-1H-pyrazol-4-yl]-7-fluoroquinoline-2,4-dicarboxamide]  2.5 nM
7. Cc1c(NC(=O)c2cc(C(N)=O)nc3c(Cl)cccc23)c(C(F)(F)F)nn1Cc1ccc(C#N)cc1 [Example 338, 8-chloro-N^4-[1-(4-cyanobenzyl)-5-methyl-3-(trifluoromethyl)-1H-pyrazol-4-yl]quinoline-2,4-dicarboxamide]  2.7 nM
8. Cc1nn(Cc2ccc(C(C)C)cc2)c(C)c1NC(=O)c1cc(C(N)=O)nc2cc(F)ccc12 [Example 1404]  3.8 nM
9. Cc1c(NC(=O)c2cc(C(N)=O)nc3ccc(Br)cc23)c(C(F)(F)F)nn1Cc1c(F)cc(C#N)cc1F [Example 399, 6-bromo-N^4-[1-(4-cyano-2,6-difluorobenzyl)-5-methyl-3-(trifluoromethyl)-1H-pyrazol-4-yl]quinoline-2,4-dicarboxamide]  4.5 nM
10. Cc1nn(Cc2ccc(C#N)cc2)c(C)c1NC(=O)c1cc(C(N)=O)nc2cc(F)c(F)cc12 [Example 230, N^4-[1-(4-cyanobenzyl)-3,5-dimethyl-1H-pyrazol-4-yl]-6,7-difluoroquinoline-2,4-dicarboxamide]  5 nM
11. Cc1cc(F)ccc1Cn1nc(C(F)(F)F)c(NC(=O)c2cc(C(N)=O)nc3ccccc23)c1C [Example 1713]  5 nM
12. Cc1nn(Cc2ncccc2C#N)c(C)c1NC(=O)c1cc(C(N)=O)nc2cc(F)c(F)cc12 [Example 222, N^4-{1-[(3-cyanopyridin-2-yl)methyl]-3,5-dimethyl-1H-pyrazol-4-yl}-6,7-difluoroquinoline-2,4-dicarboxamide]  7.1 nM
13. Cc1nn(Cc2ccc(Cl)cc2)c(C)c1NC(=O)c1cc(C(F)(F)F)nc2ccc(Br)cc12 [Example 148, 6-bromo-N-[1-(4-chlorobenzyl)-3,5-dimethyl-1H-pyrazol-4-yl]-2-(trifluoromethyl)quinoline-4-carboxamide]  11.4 nM
14. Cc1nn(Cc2ccc(F)cc2)c(C)c1NC(=O)c1cc(C(F)(F)F)nc2c(Br)cccc12 [Example 18, 8-bromo-N-[1-(4-fluorobenzyl)-3,5-dimethyl-1H-pyrazol-4-yl]-2-(trifluoromethyl)quinoline-4-carboxamide]  12.4 nM
15. Cc1nn(Cc2ccc(C(=O)NCc3ccc(-c4nnn[nH]4)cc3)cc2)c(C)c1NC(=O)c1cc(C(F)(F)F)nc2ccc(Br)cc12 [Example 1060]  15.8 nM
16. CCCS(=O)(=O)N1CCC(Cn2nc(C)c(NC(=O)c3cc(C(N)=O)nc4ccccc34)c2C)CC1 [Example 1510]  20 nM
17. Cc1nn(Cc2ccncc2C#N)c(C)c1NC(=O)c1cc(C(F)(F)F)nc2ccc(Br)cc12 [Example 1074]  22.3 nM
18. Cc1nn(Cc2ccc(F)cc2)c(C)c1NC(=O)c1c2c(nc3ccc(Br)cc13)CCCC2 [Example 37, 7-bromo-N-[1-(4-fluorobenzyl)-3,5-dimethyl-1H-pyrazol-4-yl]-1,2,3,4-tetrahydroacridine-9-carboxamide]  26.7 nM
19. COc1cc(C(=O)Nc2c(C#N)nn(Cc3ccc(F)cc3)c2C)c2ccccc2n1 [Example 1418]  34.1 nM
20. Cc1nn(Cc2cccc(S(C)(=O)=O)c2)c(C)c1NC(=O)c1cc(C(N)=O)nc2cc(F)c(Cl)cc12 [Example 1643]  34.4 nM
21. Cc1c(NC(=O)c2cc(C(N)=O)nc3cc(F)ccc23)c(C(F)(F)F)nn1Cc1cc(C2CC2)on1 [Example 1550]  34.8 nM
22. Cc1nn(Cc2ncco2)c(C)c1NC(=O)c1cc(C(N)=O)nc2ccccc12 [Example 1504]  42.4 nM
23. Cc1nn(C(C)c2ccc(F)cc2)c(C)c1NC(=O)c1cc(C(F)(F)F)nc2ccc(Br)cc12 (racemic) [Example 1374]  42.6 nM
24. COc1cc(C(=O)Nc2c(C)nn(Cc3c(F)cc(F)cc3F)c2C)c2ccccc2n1 [Example 50, N-[3,5-dimethyl-1-(2,4,6-trifluorobenzyl)-1H-pyrazol-4-yl]-2-methoxyquinoline-4-carboxamide]  50 nM
25. Cc1nn(Cc2ccc(C(=O)NC[C@H](O)CO)cc2)c(C)c1NC(=O)c1cc(C(F)(F)F)nc2ccc(Br)cc12 [Example 1112]  57 nM
26. Cc1ccc2nc(C)cc(C(=O)Nc3c(C)nn(Cc4ccc(Br)cc4)c3C)c2c1 [Example 1113]  58.5 nM
27. COCCNC(=O)c1ccc(Cn2nc(C(F)(F)F)c(NC(=O)c3cc(C(F)(F)F)nc4ccc(Br)cc34)c2C)nc1 [Example 1115]  59.4 nM
28. Cc1nn(Cc2ccc(F)cc2)c(C)c1NC(=O)c1cc(C(F)(F)F)nc2ccc(N)cc12 [Example 1117]  59.7 nM
29. COCCCNC(=O)c1ccc(Cn2nc(C)c(NC(=O)c3cc(C(F)(F)F)nc4ccc(Br)cc34)c2C)cc1 [Example 1120]  65.5 nM
30. CCN(C(=O)c1cc(C(F)(F)F)nc2ccc(Br)cc12)c1c(C)nn(Cc2ccc(F)cc2)c1C [Example 176, 6-bromo-N-ethyl-N-[1-(4-fluorobenzyl)-3,5-dimethyl-1H-pyrazol-4-yl]-2-(trifluoromethyl)quinoline-4-carboxamide]  72.2 nM
31. CNC(=O)c1cc(C(=O)Nc2c(C(F)(F)F)nn(Cc3ccc(F)cc3)c2C)c2ccccc2n1 [Example 178, N^4-[1-(4-fluorobenzyl)-5-methyl-3-(trifluoromethyl)-1H-pyrazol-4-yl]-N2-methylquinoline-2,4-dicarboxamide]  78.5 nM
32. CCc1noc(Cn2nc(C(F)(F)F)c(NC(=O)c3cc(C(N)=O)nc4ccccc34)c2C)n1 [Example 1536]  79.1 nM
33. Cc1c(NC(=O)c2cc(C(N)=O)nc3cc(F)ccc23)c(C(F)(F)F)nn1Cc1ccc(C(C)C)cc1 [Example 1406]  119 nM
34. Cc1nn(Cc2ccc(C(=O)Nc3ccncn3)cc2)c(C)c1NC(=O)c1cc(C(F)(F)F)nc2ccc(Br)cc12 [Example 1158]  155 nM
35. COC(=O)N1CCC(Cn2nc(C)c(NC(=O)c3cc(C(F)(F)F)nc4ccc(Br)cc34)c2C)CC1 [Example 1171]  195 nM
36. Cc1nn(Cc2ccc(C(=O)N[C@H](C)CO)cc2)c(C)c1NC(=O)c1cc(C(F)(F)F)nc2ccc(Br)cc12 [Example 1179]  228 nM
37. Cc1nn(Cc2ccc(C(=O)NC3CCCC3)cc2)c(C)c1NC(=O)c1cc(C(F)(F)F)nc2ccc(Br)cc12 [Example 1182]  238 nM
38. Cc1c(NC(=O)c2cc(C(N)=O)nc3cc(F)ccc23)c(C(F)(F)F)nn1Cc1ccc(C(=O)N(C)C)cc1 [Example 371, N^4-{1-[4-(dimethylcarbamoyl)benzyl]-5-methyl-3-(trifluoromethyl)-H-pyrazol-4-yl}-7-fluoroquinoline-2,4-dicarboxamide]  243 nM
39. Cc1nn(CCOc2ccc(C#N)cc2)c(C)c1NC(=O)c1cc(C(F)(F)F)nc2ccc(Br)cc12 [Example 1344]  323 nM
40. Cc1c(NC(=O)c2cc(C(N)=O)nc3ccccc23)c(C(F)(F)F)nn1Cc1cccc(C#N)n1 [Example 1690]  353 nM
41. CCc1nn(Cc2ccc(F)cc2)c(CC)c1NC(=O)c1cc(C(N)=O)nc2cc(Cl)ccc12 [Example 1391]  362 nM
42. Cc1c(NC(=O)c2cc(C(N)=O)nc3cc(F)ccc23)c(C(F)(F)F)nn1Cc1ncco1 [Example 1529]  402 nM
43. CCc1nn(Cc2ccc(F)cc2)c(CC)c1NC(=O)c1cc(C(N)=O)nc2c(F)cccc12 [Example 1384]  425 nM
44. COc1cc(C(=O)Nc2c(C)nn(Cc3ccccn3)c2C)c2ccccc2n1 [Example 110, N-[3,5-dimethyl-1-(pyridin-2-ylmethyl)-1H-pyrazol-4-yl]-2-methoxyquinoline-4-carboxamide]  708 nM
45. Cc1c(NC(=O)c2cc(C(N)=O)nc3ccccc23)c(C(F)(F)F)nn1Cc1ccc(C(C)(C)C)cc1 [Example 1370]  1090 nM
46. Cc1nn(CC2CCNCC2)c(C)c1NC(=O)c1cc(C(N)=O)nc2ccccc12 [Example 406, N^4-[3,5-dimethyl-1-(piperidin-4-ylmethyl)-1H-pyrazol-4-yl]quinoline-2,4-dicarboxamide]  1530 nM
47. COc1cc(C(=O)Nc2c(C)nn(Cc3c(C)noc3C)c2C)c2ccccc2n1 [Example 1273]  3370 nM
48. COc1ccccc1Cn1nc(C)c(NC(=O)c2cc(C(F)(F)F)nc3ccc(Br)cc23)c1C [Example 1274]  3410 nM
